Assay [1] concerns HEL. In words: Cytotoxicity against human HEL cells assessed as reduction in cell viability after 48 hrs by MTT assay. The class given is functional, cell-based. Particulars: Homo sapiens, HEL, 48 h. (In general: Formazan colour is commonly taken as a measure of viable cells.)
The test system of assay [2] is K562. In words: Cytotoxicity against human K562 cells assessed as reduction in cell viability after 48 hrs by MTT assay. The following applies: Homo sapiens, K562, 48 h. It is filed as functional, cell-based.
Assay [3] deals with MDA-MB-231. Nature of the assay: Cytotoxicity against human MDA-MB-231 cells assessed as reduction in cell viability after 48 hrs by MTT assay. It is filed as functional, cell-based. Particulars: Homo sapiens, MDA-MB-231, 48 h.
Assay [4] concerns PC-3. In words: Cytotoxicity against human PC3 cells assessed as reduction in cell viability after 48 hrs by MTT assay. The class given is functional, cell-based. Particulars: Homo sapiens, PC-3, 48 h.
Assay [5] is described as follows: Cytotoxicity against human WM9 cells assessed as reduction in cell viability after 48 hrs by MTT assay. The class given is functional, cell-based. Particulars: Homo sapiens, WM9, 48 h.
The test system of assay [6] is PC-3. Nature of the assay: Potency index, ratio of cisplatin IC50 to compound IC50 for human PC3 cells. The class given is functional.
Assay [7] deals with PC-3. Nature of the assay: Potency index, ratio of 5-fluorouracil IC50 to compound IC50 for human PC3 cells. It is filed as functional.
Assay [8] concerns PC-3. Nature of the assay: Induction of apoptosis in human PC3 cells assessed as viable cells at 3 uM after 24 hrs by Annexin V-FITC/propidium iodide double staining based flow cytometry (reference value: 97.9%). The class given is functional. The following applies: PC-3, 24 h, read-out: Activity. Background: A flow cytometer gives signals particle by particle.
The subject of assay [9] is PC-3. In words: Induction of apoptosis in human PC3 cells assessed as early apoptotic cells at 3 uM after 24 hrs by Annexin V-FITC/propidium iodide double staining based flow cytometry (reference value: 0.8%). The class given is functional.
Assay [10] has as its system PC-3. Nature of the assay: Induction of apoptosis in human PC3 cells assessed as late apoptotic cells at 3 uM after 24 hrs by Annexin V-FITC/propidium iodide double staining based flow cytometry (reference value: 0.4%). It is filed as functional.
For assay [11], the system named is PC-3. Nature of the assay: Induction of apoptosis in human PC3 cells assessed as necrotic cells at 3 uM after 24 hrs by Annexin V-FITC/propidium iodide double staining based flow cytometry (reference value: 0.9%). The class given is functional.
Assay [12] has as its system PC-3. Nature of the assay: Induction of apoptosis in human PC3 cells assessed as viable cells at 2 uM after 24 hrs by Annexin V-FITC/propidium iodide double staining based flow cytometry (reference value: 97.9%). It is filed as functional. The following applies: PC-3, 24 h, read-out: Activity.
Assay [13] deals with PC-3. In words: Induction of apoptosis in human PC3 cells assessed as early apoptotic cells at 2 uM after 24 hrs by Annexin V-FITC/propidium iodide double staining based flow cytometry (reference value: 0.8%). It is filed as functional.
Assay [14] relates to PC-3. In words: Induction of apoptosis in human PC3 cells assessed as late apoptotic cells at 2 uM after 24 hrs by Annexin V-FITC/propidium iodide double staining based flow cytometry (reference value: 0.4%). It is filed as functional.
Assay [15] concerns PC-3. In words: Induction of apoptosis in human PC3 cells assessed as necrotic cells at 2 uM after 24 hrs by Annexin V-FITC/propidium iodide double staining based flow cytometry (reference value: 0.9%). The class given is functional.
Assay [16] deals with PC-3. In words: Induction of apoptosis in human PC3 cells assessed as viable cells at 1 uM after 24 hrs by Annexin V-FITC/propidium iodide double staining based flow cytometry (reference value: 97.9%). The following applies: PC-3, 24 h, read-out: Activity. The class given is functional.
In assay [17] the test system is PC-3. Nature of the assay: Induction of apoptosis in human PC3 cells assessed as early apoptotic cells at 1 uM after 24 hrs by Annexin V-FITC/propidium iodide double staining based flow cytometry (reference value: 0.8%). The class given is functional.
Assay [18] has as its system PC-3. Nature of the assay: Induction of apoptosis in human PC3 cells assessed as late apoptotic cells at 1 uM after 24 hrs by Annexin V-FITC/propidium iodide double staining based flow cytometry (reference value: 0.4%). The class given is functional.
For assay [19], the system named is PC-3. Nature of the assay: Induction of apoptosis in human PC3 cells assessed as necrotic cells at 1 uM after 24 hrs by Annexin V-FITC/propidium iodide double staining based flow cytometry (reference value: 0.9%). The class given is functional.
For assay [20], the system named is PC-3. In words: Induction of apoptosis in human PC3 cells assessed as viable cells at 0.5 uM after 24 hrs by Annexin V-FITC/propidium iodide double staining based flow cytometry (reference value: 97.9%). Particulars: PC-3, 24 h, read-out: Activity. The class given is functional.
The test system of assay [21] is PC-3. In words: Induction of apoptosis in human PC3 cells assessed as early apoptotic cells at 0.5 uM after 24 hrs by Annexin V-FITC/propidium iodide double staining based flow cytometry (reference value: 0.8%). It is filed as functional.
Assay [22] deals with PC-3. In words: Induction of apoptosis in human PC3 cells assessed as late apoptotic cells at 0.5 uM after 24 hrs by Annexin V-FITC/propidium iodide double staining based flow cytometry (reference value: 0.4%). It is filed as functional.
Assay [23] has as its system PC-3. Nature of the assay: Induction of apoptosis in human PC3 cells assessed as necrotic cells at 0.5 uM after 24 hrs by Annexin V-FITC/propidium iodide double staining based flow cytometry (reference value: 0.9%). It is filed as functional.
Assay [24] has as its system PC-3. In words: Induction of apoptosis in human PC3 cells assessed as decrease in cell membrane smoothness at 2.5 uM after 24 hrs by inverted microscopic analysis. The class given is functional, cell-based.
Assay [25] deals with PC-3. In words: Induction of apoptosis in human PC3 cells assessed as shrunken nucleus at 2.5 uM after 24 hrs by inverted microscopic analysis. It is filed as functional, cell-based.
In assay [26] the test system is PC-3. In words: Induction of apoptosis in human PC3 cells assessed as cell shrinkage at 2.5 uM after 24 hrs by Hoechst 33258 staining based inverted microscopic analysis. It is filed as functional.
Assay [27] relates to PC-3. In words: Induction of apoptosis in human PC3 cells assessed as chromatin condensation at 2.5 uM after 24 hrs by Hoechst 33258-based inverted fluorescence microscopy. The class given is functional, cell-based.
Assay [28] deals with PC-3. Nature of the assay: Induction of apoptosis in human PC3 cells assessed as formation of apoptotic bodies at 2.5 uM after 24 hrs by 33258-based inverted fluorescence microscopy. It is filed as functional, cell-based.
Assay [29] concerns PC-3. Nature of the assay: Induction of apoptosis in human PC3 cells after 24 hrs by Annexin V-FITC/propidium iodide double staining based flow cytometry. The class given is functional, cell-based.
Assay [30] has as its system PC-3. Nature of the assay: Induction of apoptosis in human PC3 cells assessed as activation of BAX at 2.5 uM after 24 hrs by Western blot analysis. It is filed as functional, cell-based. For orientation: A western blot detects proteins with antibodies after separation by electrophoresis.
The subject of assay [31] is PC-3. In words: Induction of apoptosis in human PC3 cells assessed as suppression of bcl2 at 2.5 uM after 24 hrs by Western blot analysis. It is filed as functional, cell-based.
Assay [32] deals with PC-3. In words: Induction of apoptosis in human PC3 cells assessed as increase in cleaved caspase 9 levels at 2.5 uM after 24 hrs by Western blot analysis. It is filed as functional, cell-based.
Assay [33] deals with PC-3. Nature of the assay: Induction of apoptosis in human PC3 cells assessed as increase in cleaved caspase 3 levels at 2.5 uM after 24 hrs by Western blot analysis. The class given is functional, cell-based.
Assay [34] has as its system PC-3. In words: Induction of apoptosis in human PC3 cells assessed as increase in survivin levels at 2.5 uM after 24 hrs by Western blot analysis. It is filed as functional, cell-based.
Assay [35] has as its system PC-3. In words: Induction of apoptosis in human PC3 cells assessed as increase in cleaved PARP levels at 2.5 uM after 24 hrs by Western blot analysis. It is filed as functional, cell-based.
Assay [36] concerns PC-3. Nature of the assay: Induction of apoptosis in human PC3 cells assessed as reduction in inactive pro-caspase-9 levels at 2.5 uM after 24 hrs by Western blot analysis. It is filed as functional, cell-based.
In assay [37] the test system is PC-3. Nature of the assay: Induction of apoptosis in human PC3 cells assessed as reduction in full length PARP protein levels at 2.5 uM after 24 hrs by Western blot analysis. The class given is functional, cell-based.

The source made the active and inactive calls. The rule behind the calls is not given here.

From ChEMBL document CHEMBL4138174, “Design and synthesis of novel C14-urea-tetrandrine derivatives with potent anti-cancer activity” (Eur J Med Chem, 2018) come the findings set out here.

Take `COc1cc(NC(=S)Nc2ccc(F)cc2)c2cc1Oc1ccc(cc1)C[C@H]1c3cc(c(OC)cc3CCN1C)Oc1c(OC)c(OC)cc3c1[C@H](C2)N(C)CC3` [listing 1 of 2 here]: the IC50 (in general, the concentration that inhibits the measured activity by half) amounted to 2550 nM in assay [1]; 1560 nM in [2]; 2030 nM in [3]; 640 nM in [4]; 2600 nM in [5]. The “Ratio IC50” value in assay [6] is reported as 26; in assay [7], 31. The viability at 3 µM in [8] was 63.3%. Further, the Activity is 34.4% in [9]; 2.1% in assay [10]; 0.1% in assay [11]; 13.6% in assay [13]; 2.8% in assay [14]; 0.4% in [15]. The Activity in assay [17] was found to be 11.63%; in assay [18] it was 0.7%; in [19], 0.3%; in assay [21], 5.3%; in [22] it was 0.9%; in assay [23], 0.5%. The viability at 2 µM in assay [12] was found to be 83.3%. Also, in assay [16], the viability at 1 µM is 87.7%. For the same compound, the viability at 0.5 µM in assay [20] was 93.3%.

As for `COc1cc(NC(=S)Nc2ccc(F)cc2)c2cc1Oc1ccc(cc1)C[C@H]1c3cc(c(OC)cc3CCN1C)Oc1c(OC)c(OC)cc3c1[C@H](C2)N(C)CC3` [listing 2 of 2 here], the outcome in assay [24], in assay [25], in assay [26], in assay [27], in assay [28] and in assay [30] was Active. The outcome in assay [31], in assay [32], in assay [33], in assay [34], in [35] and in assay [36] was Active. Further, the result in assay [37] was Active. Further, the Activity result in [29] was “Dose-dependent effect”.
